Our source for the IL-10 sparing values is US20120004160A1, “METHODS FOR IDENTIFYING AND COMPOUNDS USEFUL FOR THE DIAGNOSIS AND TREATMENT OF DISEASES INVOLVING INFLAMMATION” (Glaxo Group Ltd., priority 2009, published 2012).

In this data set the test system is human primary macrophages. The data set can be described thus: IL-10 release measured in the same supernatant (additional cytokine measurements). It counts as cell-based. The settings on record: effect of Ad-shRNA on IL-10 release; supernatant of on-target assay, macrophages triggered with IgG-coated beads; symbols not defined. The protocol:
20 μL of supernatant was used in a TNFα readout assay (Meso Scale Discovery, (MSD), Gaithersburg, Md.). The measurements were performed according to manufacturer's instructions. 20 μL of sample solution were transferred by Tecan384 head on a Tecan freedom station to wells of a 384 well TNFα MSD readout plate(Meso Scale Discovery Catalog #K211BHB-6). A calibrator curve using calibrator from MSD was created using a multichannel pipette. The calibrator curve typically started at 10 ng/mL followed by 6 steps of a 3-fold dilution with a final volume of 10 μL. Plates were sealed and incubated for 2 hours on a shaking platform (set at ˜100 rounds per minute) at room temperature. Detection antibody (1.0 μg/mL) was added to the wells (10 μL for the calibrator and 20 μL for the samples) using a repetitive multichannel. Plates were sealed and incubated overnight at room temperature on a shaking platform (set at ˜100 rounds per minute). The plates were washed 3 times with PBS+0.05% Tween-20 using a Tecan washer (TECAN type, PW384). 35 μl of 2× Read Buffer T was added to each well using a multidrop. After addition of Read Buffer, the plates were read on an MSD SI6000 reader.
For the measurements of additional cytokines, such as IL-10, the supernatants were transferred using the TECAN Freedom with a TEMO-384 head. The cytokines were measured using 384 well plates purchased at Meso Scale Discovery and the methodology used is the same as described in Example 5. Hits were prioritized based on effects on IL-10 release.
In an shRNA screen there is the possibility that the observed effects are due to off-target effects: the shRNA knock down construct has an effect on expression of a different mRNA than the intended mRNA. To exclude possible off-target effects by the knockdown constructs the following “on-target” analysis was followed. For each target, the original Ad-shRNA plus 5 extra Ad-shRNA constructs against the same target were tested in the primary screening assay. If at least two independent shRNA sequences (including original confirmed drug targetAd-shRNA) give the same effect in one donor, the probability this is due to off target shRNA effects is negligible and the effect is declared “on-target”. For the on-target assay, the methods similar to the screen and rescreen were used as described in Examples 5 and 6. The TNFα release assay was performed as per Rescreen (see Example 6) except that the negative control viruses (Luc_v13) were repropagated alongside the on-target viruses. In total, 40 targets were taken along in the on-target assay, and for 15 targets multiple shRNA came up as a hit. In addition, IL-10 release was measured in the same supernatant as described in Examples 5 and 7. Table 3 indicates the effects of the shRNAs on the IL-10 release.
Take “CTTGTGCGATGCTTTGAAC: Ad-shRNA knock-down construct, KD target sequence against ATIC”: the IL-10 sparing result is reported as “✓”.
“TGTCTACACCACTGCTGCC: Ad-shRNA knock-down construct, KD target sequence against RYR1 (the letters are possibly those of the target site; listed as Homo sapiens)”: the IL-10 sparing result is recorded as “✓”.
Regarding “CATACTGGAGCCTGTAACC: Ad-shRNA knock-down construct, KD target sequence against TNFRSF10C”, the IL-10 sparing result is “✓”.
As to “CCAATGGTTACATGGCTCC: Ad-shRNA knock-down construct, KD target sequence against GRK7”, the IL-10 sparing result was “✓”.
The result for “TATGCTGTAGGCTGCCTGC: Ad-shRNA knock-down construct, KD target sequence against PIK3CB (listed as Homo sapiens)” reads “✓”; that for “AGACATGGATGGGAAAGAC: Ad-shRNA knock-down construct, KD target sequence against CBR3 (the letters are possibly those of the target site)”, “✓”; that for “GTTCTGCTGTGCATCTGCC: Ad-shRNA knock-down construct, KD target sequence against OPRL1”, “✓”.
“CTCAGGAAGGTCTTTCCAC: Ad-shRNA knock-down construct, KD target sequence against SNF1LK”: the IL-10 sparing entry is recorded as “✓”.
For the substance “GGTGTCTTACTGCTGACTC: Ad-shRNA knock-down construct, target sequence against TNFRSF11A (Table 3 only, no SEQ ID NO) (the letters are possibly those of the target site)”, the IL-10 sparing result was “✓”.
In the case of “ATGACCCTACAGGTTTACC: Ad-shRNA knock-down construct, KD target sequence against NEK10” it was “✓”; in that of “CTTGTGTGCCAGTGGATGC: Ad-shRNA knock-down construct, KD target sequence against BRS3”, “✓”.
